Assay results published in ChEMBL document CHEMBL4616689, “PROTAC Compounds Targeting Androgen Receptor for Cancer Therapeutics: Prostate Cancer and Kennedy's Disease” (ACS Med Chem Lett, 2020).

Experiments:
Assay type in all cases: cell-based
[1] = target: T1, von Hippel-Lindau disease tumor suppressor/Androgen receptor (Homo sapiens, UniProt P10275+P40337); assay: Protac activity at E3 ubiquitin-protein ligase/AR in human LNCAP cells assessed as induction of AR degradation after 24 hrs by ELISA
Target sequence in this assay (P10275 whole entry): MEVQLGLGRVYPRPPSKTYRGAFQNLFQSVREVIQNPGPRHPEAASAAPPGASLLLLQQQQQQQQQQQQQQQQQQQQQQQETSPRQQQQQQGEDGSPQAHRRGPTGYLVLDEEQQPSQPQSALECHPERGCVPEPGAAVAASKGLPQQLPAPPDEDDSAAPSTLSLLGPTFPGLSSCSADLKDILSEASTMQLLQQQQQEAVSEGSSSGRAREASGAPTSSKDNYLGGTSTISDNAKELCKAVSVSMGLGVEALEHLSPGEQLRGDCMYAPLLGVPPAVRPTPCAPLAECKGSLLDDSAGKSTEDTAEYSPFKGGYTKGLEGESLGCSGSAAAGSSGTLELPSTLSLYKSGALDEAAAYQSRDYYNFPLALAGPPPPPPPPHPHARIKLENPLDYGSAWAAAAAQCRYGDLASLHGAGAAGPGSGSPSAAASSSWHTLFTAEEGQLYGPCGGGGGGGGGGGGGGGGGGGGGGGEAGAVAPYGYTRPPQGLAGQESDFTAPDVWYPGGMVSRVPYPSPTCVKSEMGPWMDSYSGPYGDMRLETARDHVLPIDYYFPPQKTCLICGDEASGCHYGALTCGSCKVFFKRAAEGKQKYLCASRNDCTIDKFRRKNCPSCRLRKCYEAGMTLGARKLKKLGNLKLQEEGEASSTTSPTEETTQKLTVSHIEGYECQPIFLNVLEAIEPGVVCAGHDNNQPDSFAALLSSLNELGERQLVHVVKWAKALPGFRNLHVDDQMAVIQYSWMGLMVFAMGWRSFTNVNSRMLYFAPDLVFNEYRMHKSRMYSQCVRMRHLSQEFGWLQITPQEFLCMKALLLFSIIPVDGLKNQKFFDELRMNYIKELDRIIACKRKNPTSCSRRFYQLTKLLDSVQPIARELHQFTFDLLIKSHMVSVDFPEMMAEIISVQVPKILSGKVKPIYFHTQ
Target sequence in this assay (P40337 whole entry): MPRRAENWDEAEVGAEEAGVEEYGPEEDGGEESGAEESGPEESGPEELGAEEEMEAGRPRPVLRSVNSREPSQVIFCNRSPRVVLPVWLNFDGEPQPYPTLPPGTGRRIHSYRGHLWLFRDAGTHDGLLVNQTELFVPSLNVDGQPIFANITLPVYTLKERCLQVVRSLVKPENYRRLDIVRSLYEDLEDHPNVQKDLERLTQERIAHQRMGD

[2] = target: T1, von Hippel-Lindau disease tumor suppressor/Androgen receptor; assay: Protac activity at E3-ubiquitin ligase/AR in human LNCAP cells assessed as time taken for maximum degradation by ELISA
Target sequence in this assay (P10275 whole entry, looked up): as the sequence (P10275 whole entry) above
Target sequence in this assay (P40337 whole entry, looked up): as the sequence (P40337 whole entry) above

[3] = target: T1, von Hippel-Lindau disease tumor suppressor/Androgen receptor; assay: Protac activity at E3-ubiquitin ligase/AR in human VCaP cells assessed as time taken for maximal degradation by ELISA
Target sequence in this assay (P10275 whole entry, looked up): as the sequence (P10275 whole entry) above
Target sequence in this assay (P40337 whole entry, looked up): as the sequence (P40337 whole entry) above

[4] = target: T1, von Hippel-Lindau disease tumor suppressor/Androgen receptor; assay: Protac activity at E3 ubiquitin-protein ligase/AR in human LNCAP cells assessed as induction of AR degradation after 24 hrs by ELISA relative to control
Target sequence in this assay (P10275 whole entry, looked up): as the sequence (P10275 whole entry) above
Target sequence in this assay (P40337 whole entry, looked up): as the sequence (P40337 whole entry) above

[5] = target: T1, von Hippel-Lindau disease tumor suppressor/Androgen receptor; assay: Protac activity at E3 ubiquitin-protein ligase/AR in human VCAP cells assessed as induction of AR degradation after 24 hrs by ELISA relative to control
Target sequence in this assay (P10275 whole entry, looked up): as the sequence (P10275 whole entry) above
Target sequence in this assay (P40337 whole entry, looked up): as the sequence (P40337 whole entry) above

[6] = target: T1, von Hippel-Lindau disease tumor suppressor/Androgen receptor; assay: Protac activity at E3-ubiquitin ligase/AR in human VCaP cells assessed as AR degradation up to 15 mins by ELISA relative to control; set-up: concentration or dose not given beside the values
Target sequence in this assay (P10275 whole entry, looked up): as the sequence (P10275 whole entry) above
Target sequence in this assay (P40337 whole entry, looked up): as the sequence (P40337 whole entry) above

[7] = target: T1, von Hippel-Lindau disease tumor suppressor/Androgen receptor; assay: Protac activity at E3-ubiquitin ligase/AR in human LNCAP cells assessed as AR degradation up to 15 mins by ELISA relative to control; set-up: concentration or dose not given beside the values
Target sequence in this assay (P10275 whole entry, looked up): as the sequence (P10275 whole entry) above
Target sequence in this assay (P40337 whole entry, looked up): as the sequence (P40337 whole entry) above

[8] = target: T1, von Hippel-Lindau disease tumor suppressor/Androgen receptor; assay: Protac activity at E3 ubiquitin-protein ligase/AR in human VCAP cells assessed as induction of AR degradation after 24 hrs by ELISA
Target sequence in this assay (P10275 whole entry): as the sequence (P10275 whole entry) above
Target sequence in this assay (P40337 whole entry): as the sequence (P40337 whole entry) above

Cc1ncsc1-c1ccc(CNC(=O)[C@@H]2C[C@@H](O)CN2C(=O)[C@@H](NC(=O)COCCCOCCCCCOc2ccc(N3C(=S)N(c4ccc(C#N)c(C(F)(F)F)c4)C(=O)C3(C)C)cc2)C(C)(C)C)cc1 gave a DC50 [1] of at most 50 µM, a TIME [2] of 4 h and a TIME [3] of 4 h. The Emax [4] was over 71%, the Emax [5] was under 70% and the Activity [6] was 50%. For the same compound, the Activity [7] was 50% and the DC50 [8] was at most 50 µM.

Cc1ncsc1-c1ccc(CNC(=O)[C@@H]2C[C@@H](O)CN2C(=O)[C@@H](NC(=O)COCCCOCCCCOc2ccc(N3C(=S)N(c4cnc(C#N)c(C(F)(F)F)c4)C(=O)C3(C)C)cc2)C(C)(C)C)cc1 gave a DC50 [1] of at most 50 µM, a TIME [2] of 4 h and a TIME [3] of 4 h. The Emax [4] was over 71%, the Emax [5] was over 71% and the Activity [6] was 50%. It also gave an Activity [7] of 50% and a DC50 [8] of at most 50 µM.

For Cc1ncsc1-c1ccc([C@H](C)NC(=O)[C@@H]2C[C@@H](O)CN2C(=O)[C@@H](NC(=O)COCCCOCCCCCOc2c(F)cc(N3C(=S)N(c4ccc(C#N)c(C(F)(F)F)c4)C(=O)C3(C)C)cc2F)C(C)(C)C)cc1, the DC50 [1] was at most 50 µM, the TIME [2] was 4 h and the TIME [3] was 4 h. For the same compound, the Emax [4] was over 71%, the Emax [5] was under 70% and the Activity [6] was 50%. The Activity [7] was 50% and the DC50 [8] was at most 50 µM.

For Cc1ncsc1-c1ccc(CNC(=O)[C@@H]2C[C@@H](O)CN2C(=O)[C@@H](NC(=O)COCCCOCCCCOc2ccc(N3C(=S)N(c4ccc(C#N)c(Cl)c4)C(=O)C3(C)C)cc2)C(C)(C)C)cc1, the DC50 [1] was at most 50 µM, the TIME [2] was 4 h and the TIME [3] was 4 h. The Emax [4] was over 71%, the Emax [5] was over 71% and the Activity [6] was 50%. The Activity [7] was 50% and the DC50 [8] was at most 50 µM.

Compound Cc1ncsc1-c1ccc([C@H](C)NC(=O)[C@@H]2C[C@@H](O)CN2C(=O)[C@@H](NC(=O)COCCCOCCCCCOc2ccc(N3C(=S)N(c4ccc(C#N)c(C(F)(F)F)c4)C(=O)C3(C)C)cc2F)C(C)(C)C)cc1 has a DC50 [1] of at most 50 µM, a TIME [2] of 4 h and a TIME [3] of 4 h. The Emax [4] was over 71%, the Emax [5] was under 70% and the Activity [6] was 50%. The Activity [7] was 50% and the DC50 [8] was at most 50 µM.

Cc1ncsc1-c1ccc(CNC(=O)[C@@H]2C[C@@H](O)CN2C(=O)[C@@H](NC(=O)COCCCCOc2ccc(-c3ccc(N4C(=S)N(c5ccc(C#N)c(C(F)(F)F)c5)C(=O)C4(C)C)cc3)cc2)C(C)(C)C)cc1 showed a DC50 [1] of at most 50 µM, a TIME [2] of 4 h and a TIME [3] of 4 h. For the same compound, the Emax [4] was over 71%, the Emax [5] was over 71% and the Activity [6] was 50%. It also gave an Activity [7] of 50% and a DC50 [8] of at most 50 µM.

In the case of Cc1ncsc1-c1ccc(CNC(=O)[C@@H]2C[C@@H](O)CN2C(=O)[C@@H](NC(=O)COCCCOCCCCCOc2ccc(N3C(=S)N(c4cnc(C#N)c(C(F)(F)F)c4)C(=O)C3(C)C)cc2)C(C)(C)C)cc1, the DC50 [1] is reported as at most 50 µM, the TIME [2] is reported as 4 h and the TIME [3] is reported as 4 h. For the same compound, the Emax [4] was over 71%, the Emax [5] was under 70% and the Activity [6] was 50%. The Activity [7] was 50% and the DC50 [8] was at most 50 µM.

Compound Cc1ncsc1-c1ccc(CNC(=O)[C@@H]2C[C@@H](O)CN2C(=O)[C@@H](NC(=O)COCCCOCCCCOc2ccc(N3C(=S)N(c4ccc(C#N)c(C(F)(F)F)c4)C(=O)C3(C)C)cc2F)C(C)(C)C)cc1 has a DC50 [1] of at most 50 µM, a TIME [2] of 4 h and a TIME [3] of 4 h. The Emax [4] was over 71%, the Emax [5] was over 71% and the Activity [6] was 50%. For the same compound, the Activity [7] was 50% and the DC50 [8] was at most 50 µM.
